Results: paper PMC7162861, “Synthesis, cytotoxicity, pharmacokinetic profile, binding with DNA and BSA of new imidazo[1,2-a]pyrazine-benzo[d]imidazol-5-yl hybrids” (Scientific Reports, 2020)

How the values were obtained:
HS 578 T = assay: NCI cytotoxicity screen, Breast Cancer panel; format: cell-based
Protocol: (§1) Cytotoxicity was performed at National Cancer Institute (NCI), Bethesda, USA as per their protocols.

T-47D = assay: NCI cytotoxicity screen, Breast Cancer panel; format: cell-based
Protocol: as §1

BT-549 = assay: NCI cytotoxicity screen, Breast Cancer panel; format: cell-based
Protocol: as §1

MDA-MB-231/ATCC = assay: NCI cytotoxicity screen, Breast Cancer panel; format: cell-based
Protocol: as §1

MCF7 = assay: NCI cytotoxicity screen, Breast Cancer panel; format: cell-based
Protocol: as §1

MDA-MB-468 = assay: NCI cytotoxicity screen, Breast Cancer panel; format: cell-based; settings: Homo sapiens, five dose 0.01–100 µM
Protocol: as §1

NCI-H23 = assay: NCI cytotoxicity screen, Non-Small Cell Lung Cancer panel; format: cell-based, human; settings: five dose 0.01–100 µM
Protocol: as §1

NCI-H322M = assay: as above; format: cell-based, human
Protocol: as §1

NCI-522 = assay: as above; format: cell-based, human
Protocol: as §1

NCI-H226 = assay: as above; format: cell-based, human
Protocol: as §1

OVCAR-3 = assay: NCI cytotoxicity screen, Ovarian Cancer panel; format: cell-based, human
Protocol: as §1

EtBr-CT-DNA complex = assay: Competitive binding with ethidium bromide for CT-DNA; set-up: species or system calf
Protocol: Ethidium bromide (EtBr) displacement experiments were performed by incremental addition of compound 31 to complex of EtBr-DNA. The EtBr (3 µM) and CT-DNA (30 µM) were titrated with incremental addition of compound 31 (0–85 µM) in phosphate buffer (pH 7.4). […] The quenching constant (Kq) was calculated using the Stern-Volmer equation (Eq. 2). The apparent binding constant (Kapp) was obtained from known binding constant for ethidium bromide (KEtBr = 1 × 10^7 M^−1) using the following equation (Eq. 4).4 Kapp=KEtBr[EtBr]/[compound]50% where [compound]50% and [EtBr] are the concentrations of the compound at 50% quenching of DNA-bound ethidium bromide emission intensity and ethidium bromide (3 µM), respectively.

OVCAR-8 = assay: NCI cytotoxicity screen, Ovarian Cancer panel; format: cell-based
Protocol: as §1

SK-OV-3 = assay: NCI cytotoxicity screen, Ovarian Cancer panel; format: cell-based
Protocol: as §1

NCI/ADR-RES = assay: NCI cytotoxicity screen, Ovarian Cancer panel; format: cell-based
Protocol: as §1

OVCAR-5 = assay: NCI cytotoxicity screen, Ovarian Cancer panel; format: cell-based; settings: Homo sapiens
Protocol: as §1

IGROV1 = assay: NCI cytotoxicity screen, Ovarian Cancer panel; format: cell-based; settings: Homo sapiens, IGROV-1, five dose 0.01–100 µM
Protocol: as §1

OVCAR-4 = assay: NCI cytotoxicity screen, Ovarian Cancer panel; format: cell-based
Protocol: as §1

[1] = NCI cytotoxicity screen, Non-Small Cell Lung Cancer panel; format: cell-based; settings: Homo sapiens; EXVX; five dose 0.01–100 µM; read-out: LC50 (the source's name)
Protocol: as §1

[2] = biological target: bovine serum albumin (BSA) (Bos taurus, UniProt P02769); assay: Förster resonance energy transfer (FRET) with BSA; format: binding; settings: BSA donor, compound acceptor
From the text: The energy transfer efficiency from BSA and compound 31 can be calculated using Eq. 5 [27]:5 E=1−F/Fo=Ro6/Ro6+r^6
F and Fo are the BSA fluorescence intensities in the presence and absence of the derivative 31, r is the distance among the acceptor and the donor, whereas Ro is the critical distance when the efficiency of energy transfer is 50%. Ro can be calculated using Eq. 6 [28]:6 Ro6=8.8×10^−25k^2η^−4ΦJ where k^2 is the orientation factor of the dipole, ɳ is the refracted index of the medium, Ф the fluorescence quantum yield of the donor, and J is the overlap integral of the fluorescence emission spectrum of the donor with the absorption spectrum of the acceptor. The value of J can be calculated using Eq. 7 [29]:7 J=ΣF(λ)ε(λ)λ^4Δλ/ΣF(λ)Δλ where F(λ) is fluorescence intensity of the donor i.e. BSA without acceptor and ε(λ) is molar absorption coefficient of the acceptor i.e. compound 31 at the wavelength λ, respectively. The values of k^2 = 2/3, ɳ = 1.336 and Ф = 0.15 were used for the calculations.

[3] = Homo sapiens, five dose 0.01–100 µM, read-out: LC50 (the source's name)

bovine serum albumin (BSA), sequence (P02769 25-607): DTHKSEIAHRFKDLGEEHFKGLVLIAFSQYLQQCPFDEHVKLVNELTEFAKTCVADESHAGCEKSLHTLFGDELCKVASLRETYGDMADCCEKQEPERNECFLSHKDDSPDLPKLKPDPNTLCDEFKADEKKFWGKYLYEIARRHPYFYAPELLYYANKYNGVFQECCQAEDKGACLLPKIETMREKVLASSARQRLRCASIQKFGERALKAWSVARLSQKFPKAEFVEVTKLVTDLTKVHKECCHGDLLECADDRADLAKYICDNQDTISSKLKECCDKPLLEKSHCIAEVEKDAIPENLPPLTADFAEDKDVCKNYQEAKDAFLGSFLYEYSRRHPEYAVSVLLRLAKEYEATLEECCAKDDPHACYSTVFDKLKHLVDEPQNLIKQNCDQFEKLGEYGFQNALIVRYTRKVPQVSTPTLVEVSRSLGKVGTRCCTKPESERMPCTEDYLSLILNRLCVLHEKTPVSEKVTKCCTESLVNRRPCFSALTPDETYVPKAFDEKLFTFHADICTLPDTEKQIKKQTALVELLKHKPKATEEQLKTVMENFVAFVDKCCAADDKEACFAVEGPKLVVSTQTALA

Question: What does the source list for `c1cn2cc(-c3ccc4ncn(C5CCCCC5)c4c3)nc(-c3ccc4c(c3)ncn4C3CCCCC3)c2n1` [Compound 31, 8-(1-cyclohexyl-1H-benzo[d]imidazol-5-yl)-6-(1-cyclohexyl-1H-benzo[d]imidazol-6-yl)imidazo[1,2-a]pyrazine]?
Answer: TGI (HS 578 T; HS 578 T, five dose 0.01–100 µM): 6.74 µM; GI50 (HS 578 T; Homo sapiens, Hs-578T): 2390 nM; inhibition at 10 µM (HS 578 T; Homo sapiens, Hs-578T, read-out: Percent growth inhibition): 96.6%; CC50 (HS 578 T; Homo sapiens, HS 578 T, five dose 0.01–100 µM, read-out: LC50 (the source's name)): > 1000 nM; GI50 (T-47D; Homo sapiens, T47D): 1900 nM; CC50 (T-47D; Homo sapiens, T47D, T-47D, five dose 0.01–100 µM, read-out: LC50 (the source's name)): > 1000 nM; TGI (T-47D; T-47D, five dose 0.01–100 µM): 4.69 µM; GI50 (BT-549; Homo sapiens): 1940 nM; CC50 (BT-549; [3]): 6.82 µM; TGI (BT-549; five dose 0.01–100 µM): 3.64 µM; GI50 (MDA-MB-231/ATCC; Homo sapiens, MDA-MB-231): 1290 nM; CC50 (MDA-MB-231/ATCC; Homo sapiens, MDA-MB-231/ATCC, five dose 0.01–100 µM, read-out: LC50 (the source's name)): 7.33 µM; TGI (MDA-MB-231/ATCC; MDA-MB-231/ATCC, five dose 0.01–100 µM): 3.08 µM; GI50 (MCF7; Homo sapiens): 1800 nM; CC50 (MCF7; [3]): > 1000 nM; TGI (MCF7; five dose 0.01–100 µM): 4.58 µM; GI50 (MDA-MB-468): 2320 nM; CC50 (MDA-MB-468; read-out: LC50 (the source's name)): > 1000 nM; GI50 (NCI-H23; Homo sapiens): 2010 nM; TGI (NCI-H23): 4.09 µM; GI50 (NCI-H322M; Homo sapiens): 1910 nM; inhibition at 10 µM (NCI-H322M; Homo sapiens, single dose 10 µM, negative = lethal, read-out: Percent growth inhibition): 98.8%; TGI (NCI-H322M; five dose 0.01–100 µM): 4.14 µM; GI50 (NCI-522; Homo sapiens): 1740 nM; TGI (NCI-522; NCI-522, five dose 0.01–100 µM): 3.40 µM; GI50 (NCI-H226; Homo sapiens): 1690 nM; TGI (NCI-H226; five dose 0.01–100 µM): 3.79 µM; GI50 (OVCAR-3; Homo sapiens, OVCAR-3): 1830 nM; CC50 (OVCAR-3; Homo sapiens, OVCAR-3, read-out: LC50): 6.2 µM; TGI (OVCAR-3; OVCAR-3, five dose 0.01–100 µM): 3.36 µM; apparent binding constant Kapp (EtBr-CT-DNA complex; EtBr displacement, Eq. 4): 750000 M⁻¹; quenching constant (Stern-Volmer) (EtBr-CT-DNA complex; EtBr-CT-DNA 3 µM:30 µM, compound 0-80 µM): 11600 M⁻¹; GI50 (OVCAR-8; Homo sapiens): 2550 nM; CC50 (OVCAR-8; [3]): > 1000 nM; TGI (OVCAR-8; five dose 0.01–100 µM): 9.49 µM; GI50 (SK-OV-3; Homo sapiens): 2270 nM; CC50 (SK-OV-3; [3]): 7.42 µM; TGI (SK-OV-3; five dose 0.01–100 µM): 4.10 µM; GI50 (NCI/ADR-RES; Homo sapiens): 2340 nM; CC50 (NCI/ADR-RES; [3]): > 1000 nM; inhibition at 10 µM (NCI/ADR-RES; Homo sapiens, read-out: Percent growth inhibition): 98.9%; TGI (NCI/ADR-RES; five dose 0.01–100 µM): 7.33 µM; GI50 (OVCAR-5): 2430 nM; CC50 (OVCAR-5; five dose 0.01–100 µM, read-out: LC50 (the source's name)): > 1000 nM; GI50 (IGROV1): 2040 nM; GI50 (OVCAR-4; Homo sapiens, OVCAR-4): 2170 nM; inhibition at 10 µM (OVCAR-4; Homo sapiens, OVCAR-4, read-out: Percent growth inhibition): 97.2%; CC50 (OVCAR-4; Homo sapiens, OVCAR-4, five dose 0.01–100 µM, read-out: LC50 (the source's name)): > 1000 nM; TGI (OVCAR-4; OVCAR-4, five dose 0.01–100 µM): 6.30 µM; CC50 [1]: > 1000 nM; critical distance (Ro) [2]: 2.29 nm; distance between BSA and the compound (r) [2]: 2.08 nm; energy transfer efficiency (E) [2]: 64%; overlap integral value (J) [2]: 5.35 × 10^−15 cm^3 L mol^−1
